Reference: ChEMBL document CHEMBL3734705, “Synthesis and in vitro cytotoxicity of novel C-12 substituted-14-deoxy-andrographolide derivatives as potent anti-cancer agents” (2015)

tested on: not listed separately; assay: Cytotoxicity against human UO31 cells assessed as growth level at 10 uM after 48 hrs by SRB assay; assay type: functional, UO-31; conditions: not given

SMILES | Activity
C=C1CC[C@@H]2[C@](C)(COC(C)=O)[C@H](OC(C)=O)CC[C@@]2(C)[C@@H]1CC(NCc1ccccc1)C1=CCOC1=O (mixture of isomers) | 29.11%

tested on: not listed separately; assay: Cytotoxicity against human SF295 cells assessed as growth inhibition at 10 uM after 48 hrs by SRB assay; assay type: functional; conditions: SF-295, 48 h, read-out: GI

SMILES | inhibition of growth at 10 µM
C=C1CC[C@@H]2[C@](C)(COC(C)=O)[C@H](OC(C)=O)CC[C@@]2(C)[C@@H]1CC(NCc1ccccc1)C1=CCOC1=O (mixture of isomers) | 36.1%

tested on: not listed separately; assay: Cytotoxicity against human HOP92 cells assessed as growth level at 10 uM after 48 hrs by SRB assay; assay type: functional, HOP-92; conditions: not given

SMILES | Activity
C=C1CC[C@@H]2[C@](C)(COC(C)=O)[C@H](OC(C)=O)CC[C@@]2(C)[C@@H]1CC(NCc1ccccc1)C1=CCOC1=O (mixture of isomers) | 41.66%

tested on: NCI-H226; assay: Cytotoxicity against human NCI-H226 cells assessed as growth level at 10 uM after 48 hrs by SRB assay; assay type: functional; conditions: not given

SMILES | Activity
C=C1CC[C@@H]2[C@](C)(COC(C)=O)[C@H](OC(C)=O)CC[C@@]2(C)[C@@H]1CC(NCc1ccccc1)C1=CCOC1=O (mixture of isomers) | 11.36%

tested on: SK-MEL-28; assay: Cytotoxicity against human SK-MEL-28 cells assessed as growth level at 10 uM after 48 hrs by SRB assay; assay type: functional; conditions: not given

SMILES | Activity
C=C1CC[C@@H]2[C@](C)(COC(C)=O)[C@H](OC(C)=O)CC[C@@]2(C)[C@@H]1CC(NCc1ccccc1)C1=CCOC1=O (mixture of isomers) | 68.59%

tested on: not listed separately; assay: Cytotoxicity against human UO31 cells assessed as growth inhibition at 10 uM after 48 hrs by SRB assay; assay type: functional; conditions: UO-31, 48 h, read-out: GI

SMILES | inhibition of growth at 10 µM
C=C1CC[C@@H]2[C@](C)(COC(C)=O)[C@H](OC(C)=O)CC[C@@]2(C)[C@@H]1CC(NCc1ccccc1)C1=CCOC1=O (mixture of isomers) | 70.9%

tested on: not listed separately; assay: Cytotoxicity against human SNB19 cells assessed as growth level at 10 uM after 48 hrs by SRB assay; assay type: functional, SNB-19; conditions: not given

SMILES | Activity
C=C1CC[C@@H]2[C@](C)(COC(C)=O)[C@H](OC(C)=O)CC[C@@]2(C)[C@@H]1CC(NCc1ccccc1)C1=CCOC1=O (mixture of isomers) | 68.18%

tested on: not listed separately; assay: Cytotoxicity against human UACC62 cells assessed as growth inhibition at 10 uM after 48 hrs by SRB assay; assay type: functional; conditions: UACC-62, 48 h, read-out: GI

SMILES | inhibition of growth at 10 µM
C=C1CC[C@@H]2[C@](C)(COC(C)=O)[C@H](OC(C)=O)CC[C@@]2(C)[C@@H]1CC(NCc1ccccc1)C1=CCOC1=O (mixture of isomers) | 61.2%

tested on: CCRF-CEM; assay: Cytotoxicity against human CCRF-CEM cells assessed as growth inhibition at 10 uM after 48 hrs by SRB assay; assay type: functional; conditions: read-out: GI

SMILES | inhibition of growth at 10 µM
C=C1CC[C@@H]2[C@](C)(COC(C)=O)[C@H](OC(C)=O)CC[C@@]2(C)[C@@H]1CC(NCc1ccccc1)C1=CCOC1=O (mixture of isomers) | 79.1%

tested on: not listed separately; assay: Cytotoxicity against human PC3 cells assessed as growth inhibition at 10 uM after 48 hrs by SRB assay; assay type: functional; conditions: PC-3, 48 h, read-out: GI

SMILES | inhibition of growth at 10 µM
C=C1CC[C@@H]2[C@](C)(COC(C)=O)[C@H](OC(C)=O)CC[C@@]2(C)[C@@H]1CC(NCc1ccccc1)C1=CCOC1=O (mixture of isomers) | 89.9%

tested on: ACHN; assay: Cytotoxicity against human ACHN cells assessed as growth inhibition at 10 uM after 48 hrs by SRB assay; assay type: functional; conditions: read-out: GI

SMILES | inhibition of growth at 10 µM
C=C1CC[C@@H]2[C@](C)(COC(C)=O)[C@H](OC(C)=O)CC[C@@]2(C)[C@@H]1CC(NCc1ccccc1)C1=CCOC1=O (mixture of isomers) | 53.6%

tested on: not listed separately; assay: Cytotoxicity against human UACC62 cells assessed as growth level at 10 uM after 48 hrs by SRB assay; assay type: functional, UACC-62; conditions: not given

SMILES | Activity
C=C1CC[C@@H]2[C@](C)(COC(C)=O)[C@H](OC(C)=O)CC[C@@]2(C)[C@@H]1CC(NCc1ccccc1)C1=CCOC1=O (mixture of isomers) | 38.81%

tested on: not listed separately; assay: Cytotoxicity against human COLO205 cells assessed as growth level at 10 uM after 48 hrs by SRB assay; assay type: functional, COLO 205; conditions: not given

SMILES | Activity
C=C1CC[C@@H]2[C@](C)(COC(C)=O)[C@H](OC(C)=O)CC[C@@]2(C)[C@@H]1CC(NCc1ccccc1)C1=CCOC1=O (mixture of isomers) | 45.59%

tested on: not listed separately; assay: Cytotoxicity against human NCI-ADR-RES cells assessed as growth inhibition at 10 uM after 48 hrs by SRB assay; assay type: functional; conditions: read-out: GI

SMILES | inhibition of growth at 10 µM
C=C1CC[C@@H]2[C@](C)(COC(C)=O)[C@H](OC(C)=O)CC[C@@]2(C)[C@@H]1CC(NCc1ccccc1)C1=CCOC1=O (mixture of isomers) | 76.5%

tested on: M14; assay: Cytotoxicity against human M14 cells assessed as growth inhibition at 10 uM after 48 hrs by SRB assay; assay type: functional; conditions: M14, 48 h, read-out: GI

SMILES | inhibition of growth at 10 µM
C=C1CC[C@@H]2[C@](C)(COC(C)=O)[C@H](OC(C)=O)CC[C@@]2(C)[C@@H]1CC(NCc1ccccc1)C1=CCOC1=O (mixture of isomers) | 57.9%

tested on: MCF7; assay: Cytotoxicity against human MCF7 cells assessed as growth level at 10 uM after 48 hrs by SRB assay; assay type: functional; conditions: not given

SMILES | Activity
C=C1CC[C@@H]2[C@](C)(COC(C)=O)[C@H](OC(C)=O)CC[C@@]2(C)[C@@H]1CC(NCc1ccccc1)C1=CCOC1=O (mixture of isomers) | 29.82%

tested on: A498; assay: Cytotoxicity against human A498 cells assessed as growth inhibition at 10 uM after 48 hrs by SRB assay; assay type: functional; conditions: A498, 48 h, read-out: GI

SMILES | inhibition of growth at 10 µM
C=C1CC[C@@H]2[C@](C)(COC(C)=O)[C@H](OC(C)=O)CC[C@@]2(C)[C@@H]1CC(NCc1ccccc1)C1=CCOC1=O (mixture of isomers) | 43.8%

tested on: M14; assay: Cytotoxicity against human M14 cells assessed as growth level at 10 uM after 48 hrs by SRB assay; assay type: functional; conditions: not given

SMILES | Activity
C=C1CC[C@@H]2[C@](C)(COC(C)=O)[C@H](OC(C)=O)CC[C@@]2(C)[C@@H]1CC(NCc1ccccc1)C1=CCOC1=O (mixture of isomers) | 42.07%

tested on: SN12C; assay: Cytotoxicity against human SN12C cells assessed as growth inhibition at 10 uM after 48 hrs by SRB assay; assay type: functional; conditions: read-out: GI

SMILES | inhibition of growth at 10 µM
C=C1CC[C@@H]2[C@](C)(COC(C)=O)[C@H](OC(C)=O)CC[C@@]2(C)[C@@H]1CC(NCc1ccccc1)C1=CCOC1=O (mixture of isomers) | 41.8%

tested on: not listed separately; assay: Cytotoxicity against human SF268 cells assessed as growth inhibition at 10 uM after 48 hrs by SRB assay; assay type: functional; conditions: SF-268, 48 h, read-out: GI

SMILES | inhibition of growth at 10 µM
C=C1CC[C@@H]2[C@](C)(COC(C)=O)[C@H](OC(C)=O)CC[C@@]2(C)[C@@H]1CC(NCc1ccccc1)C1=CCOC1=O (mixture of isomers) | 37.9%

tested on: not listed separately; assay: Cytotoxicity against human BT549 cells assessed as growth level at 10 uM after 48 hrs by SRB assay; assay type: functional, BT-549; conditions: not given

SMILES | Activity
C=C1CC[C@@H]2[C@](C)(COC(C)=O)[C@H](OC(C)=O)CC[C@@]2(C)[C@@H]1CC(NCc1ccccc1)C1=CCOC1=O (mixture of isomers) | 28.11%

tested on: not listed separately; assay: Cytotoxicity against human OVCAR4 cells assessed as growth inhibition at 10 uM after 48 hrs by SRB assay; assay type: functional; conditions: OVCAR-4, 48 h, read-out: GI

SMILES | inhibition of growth at 10 µM
C=C1CC[C@@H]2[C@](C)(COC(C)=O)[C@H](OC(C)=O)CC[C@@]2(C)[C@@H]1CC(NCc1ccccc1)C1=CCOC1=O (mixture of isomers) | 64.1%

tested on: NCI-H322M; assay: Cytotoxicity against human NCI-H322M cells assessed as growth level at 10 uM after 48 hrs by SRB assay; assay type: functional; conditions: not given

SMILES | Activity
C=C1CC[C@@H]2[C@](C)(COC(C)=O)[C@H](OC(C)=O)CC[C@@]2(C)[C@@H]1CC(NCc1ccccc1)C1=CCOC1=O (mixture of isomers) | 77.01%

tested on: A549; assay: Cytotoxicity against human A549 cells assessed as growth inhibition at 10 uM after 48 hrs by SRB assay; assay type: functional; conditions: A549, 48 h, read-out: GI

SMILES | inhibition of growth at 10 µM
C=C1CC[C@@H]2[C@](C)(COC(C)=O)[C@H](OC(C)=O)CC[C@@]2(C)[C@@H]1CC(NCc1ccccc1)C1=CCOC1=O (mixture of isomers) | 50.8%

tested on: not listed separately; assay: Cytotoxicity against human RPMI8226 cells assessed as growth inhibition at 10 uM after 48 hrs by SRB assay; assay type: functional; conditions: RPMI-8226, 48 h, read-out: GI

SMILES | inhibition of growth at 10 µM
C=C1CC[C@@H]2[C@](C)(COC(C)=O)[C@H](OC(C)=O)CC[C@@]2(C)[C@@H]1CC(NCc1ccccc1)C1=CCOC1=O (mixture of isomers) | 96.8%

tested on: NCI-H322M; assay: Cytotoxicity against human NCI-H322M cells assessed as growth inhibition at 10 uM after 48 hrs by SRB assay; assay type: functional; conditions: read-out: GI

SMILES | inhibition of growth at 10 µM
C=C1CC[C@@H]2[C@](C)(COC(C)=O)[C@H](OC(C)=O)CC[C@@]2(C)[C@@H]1CC(NCc1ccccc1)C1=CCOC1=O (mixture of isomers) | 23%
